Data taken from ChEMBL document CHEMBL1201862, “PubChem BioAssay data set” (2004).
Calls of active or inactive are those of the source.

What was measured:
[1] = target: Albumin (Bos taurus, UniProt P02769); assay: Counterscreen for inhibitors of T-cell receptor (TCR)-CD3 interaction: Fluorescence-based biochemical high throughput dose response assay to identify inhibitors of T-cell receptor (TCR)-CD3 interaction using a TAMRA-labeled BSA probe.; type: functional
[2] = Counterscreen for inhibitors of Trypanosoma brucei methionyl tRNA synthetase (MetRS): Luminescence-based cell-based high throughput dose response assay to identify compounds that are cytotoxic to Jurkat human T lymphocyte cells.; type: functional
[3] = target: T1, Methionyl-tRNA synthetase, putative (Trypanosoma brucei brucei, UniProt Q38C91); type: functional, Trypanosoma brucei brucei strain 927/4 GUTat10.1
T1 sequence (Q38C91 whole entry): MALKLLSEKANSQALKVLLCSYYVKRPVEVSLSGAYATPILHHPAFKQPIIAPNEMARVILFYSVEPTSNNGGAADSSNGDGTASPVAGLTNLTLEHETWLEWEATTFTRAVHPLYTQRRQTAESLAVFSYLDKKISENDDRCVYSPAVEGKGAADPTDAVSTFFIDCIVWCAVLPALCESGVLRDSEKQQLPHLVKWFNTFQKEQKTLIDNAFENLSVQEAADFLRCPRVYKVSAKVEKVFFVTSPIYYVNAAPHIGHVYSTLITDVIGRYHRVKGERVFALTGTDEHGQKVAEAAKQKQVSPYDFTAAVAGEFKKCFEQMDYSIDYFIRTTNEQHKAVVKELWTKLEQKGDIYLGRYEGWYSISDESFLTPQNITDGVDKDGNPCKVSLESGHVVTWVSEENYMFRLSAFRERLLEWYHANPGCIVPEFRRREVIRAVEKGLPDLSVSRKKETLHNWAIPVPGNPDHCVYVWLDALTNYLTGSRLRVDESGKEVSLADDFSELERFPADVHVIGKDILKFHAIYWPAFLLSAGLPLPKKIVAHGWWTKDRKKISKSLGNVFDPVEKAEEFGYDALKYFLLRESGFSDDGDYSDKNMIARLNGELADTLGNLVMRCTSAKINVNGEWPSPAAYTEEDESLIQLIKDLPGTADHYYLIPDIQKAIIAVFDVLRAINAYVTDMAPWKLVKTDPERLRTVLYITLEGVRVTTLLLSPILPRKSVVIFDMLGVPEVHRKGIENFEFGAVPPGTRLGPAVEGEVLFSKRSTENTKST

[4] = target: T1, Methionyl-tRNA synthetase, putative; type: functional, Trypanosoma brucei brucei strain 927/4 GUTat10.1; remark: listed apart in the source
[5] = target: Eukaryotic translation initiation factor 4E (Mus musculus, UniProt P63073); assay: eIF4E–eIF4G protein interaction inhibitors, dose response, biochemical, TR-FRET (AID 855); type: functional;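 note: potency for disrupting eIF4E binding to eIF4GI seen as loss of FRET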
[6] = target: T2, Long-chain-fatty-acid--AMP ligase FadD28 (Mycobacterium tuberculosis, UniProt P9WQ59); assay: Fluorescence polarization aasay to screen for inhibitors that compete for the binding of FadD28 to a bisubstrate Measured in Biochemical System Using Plate Reader - 2147-01_Inhibitor_Dose_CherryPick_Activity.; type: functional, Mycobacterium tuberculosis H37Rv
T2 sequence (P9WQ59 whole entry): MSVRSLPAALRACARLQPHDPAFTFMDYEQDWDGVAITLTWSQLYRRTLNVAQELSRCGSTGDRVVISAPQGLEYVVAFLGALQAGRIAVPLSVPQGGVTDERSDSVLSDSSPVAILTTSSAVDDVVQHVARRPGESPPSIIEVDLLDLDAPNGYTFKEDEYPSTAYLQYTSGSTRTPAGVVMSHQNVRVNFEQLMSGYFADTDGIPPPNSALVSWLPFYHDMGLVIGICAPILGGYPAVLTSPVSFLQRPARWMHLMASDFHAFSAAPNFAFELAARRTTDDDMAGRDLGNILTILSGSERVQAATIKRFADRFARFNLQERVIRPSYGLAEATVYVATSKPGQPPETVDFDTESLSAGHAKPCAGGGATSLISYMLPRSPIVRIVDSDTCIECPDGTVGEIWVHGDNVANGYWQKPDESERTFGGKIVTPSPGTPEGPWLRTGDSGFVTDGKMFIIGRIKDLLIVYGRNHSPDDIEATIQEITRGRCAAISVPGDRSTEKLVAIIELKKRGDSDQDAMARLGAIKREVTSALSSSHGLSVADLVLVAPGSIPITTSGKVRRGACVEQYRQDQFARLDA

[7] = Luminescence Cell-Based Dose Confirmation HTS to Identify Activators of 5'UTR Stem-Loop Driven Alpha-Synuclein mRNA Translation in H4 Neuroglioblastoma Cells. [Related pubchem assays: 1829 (Project Summary), 1814 (Primary HTS)]; type: functional
[8] = target: T3, Heat shock factor protein 1 (Mus musculus, UniProt P38532); assay: inhibition of MG132-induced HSE-luciferase signal, confirmation, cell-based, NIH3T3, luminescence, dose retest (AID 2382); type: functional;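 note: NIH3T3 fibroblasts with HSF1-driven luciferase reporter stressed by proteasome inhibitor MG132; luminescence from HSF1-driven luciferase expression after 8 hours of MG132 stress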
T3 sequence (P38532 whole entry): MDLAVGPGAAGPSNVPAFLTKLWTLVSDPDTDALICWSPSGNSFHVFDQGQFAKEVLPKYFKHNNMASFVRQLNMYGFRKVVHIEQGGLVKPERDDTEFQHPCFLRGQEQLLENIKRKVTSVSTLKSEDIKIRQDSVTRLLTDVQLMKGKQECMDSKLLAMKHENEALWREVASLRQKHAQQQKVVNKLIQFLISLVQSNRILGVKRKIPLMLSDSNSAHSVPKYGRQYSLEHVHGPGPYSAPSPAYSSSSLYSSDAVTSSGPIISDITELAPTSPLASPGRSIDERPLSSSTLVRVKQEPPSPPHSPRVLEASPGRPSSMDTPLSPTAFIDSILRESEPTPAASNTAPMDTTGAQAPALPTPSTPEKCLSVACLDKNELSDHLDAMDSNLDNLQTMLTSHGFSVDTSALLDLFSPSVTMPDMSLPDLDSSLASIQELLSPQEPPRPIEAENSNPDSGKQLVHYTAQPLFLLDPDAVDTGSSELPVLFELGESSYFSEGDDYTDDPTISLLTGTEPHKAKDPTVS

[9] = Luminescence Cell-Based Dose Response HTS to Identify Activators of Luciferase Translation or Activity in H4 […] Cells. [Related pubchem assays: 1829 (Project Summary), 1814 (Primary HTS)]; type: functional
[10] = Fluorescence-based cell-based high throughput dose response assay for inhibitors of the interaction of nucleotide-binding oligomerization domain containing 2 (NOD2) and the receptor-interacting serine-threonine kinase 2 (RIPK2).; type: functional, Homo sapiens; conditions: Homo sapiens
[11] = system: H4; assay: Luminescence Cell-Based Dose Response HTS to Identify Activators of 5'UTR Stem-Loop Driven Prion Protein mRNA Translation in H4 Neuroglioblastoma Cells. [Related pubchem assays: 1829 (Project Summary), 1814 (Primary HTS)]; type: functional; conditions: Homo sapiens
[12] = target: Paired box protein Pax-8 (Homo sapiens, UniProt Q06710); assay: inhibitors of PAX8-driven TPO luciferase reporter, dose response, RMG-I cells, cherry-pick (AID 687027); type: functional, cell-based;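 note: luciferase reporter driven by Pax8 target thyroperoxidase promoter measured by SteadyGlo luminescence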
[13] = microbe, parasite or virus in culture; type: functional; conditions: Mycobacterium tuberculosis
[14] = target: T4, Galanin receptor type 3 (Homo sapiens, UniProt O60755); assay: Fluorescence-based cell-based primary high throughput dose response assay to identify antagonists of the Galanin Receptor 3 (GalR3).; type: functional
T4 sequence (O60755 whole entry): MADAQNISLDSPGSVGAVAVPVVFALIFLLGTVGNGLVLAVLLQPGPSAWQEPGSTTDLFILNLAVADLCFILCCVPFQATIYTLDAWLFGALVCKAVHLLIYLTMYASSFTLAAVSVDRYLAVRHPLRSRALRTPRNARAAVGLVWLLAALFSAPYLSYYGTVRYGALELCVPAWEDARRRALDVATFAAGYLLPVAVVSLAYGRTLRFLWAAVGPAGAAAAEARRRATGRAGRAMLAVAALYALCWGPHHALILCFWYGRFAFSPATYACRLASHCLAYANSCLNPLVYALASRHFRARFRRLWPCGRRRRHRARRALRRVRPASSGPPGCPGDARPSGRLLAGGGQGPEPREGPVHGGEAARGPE

[15] = cells; type: functional, cell-based; conditions: HEK-CNG
[16] = target: T5, Fructose-bisphosphate aldolase (Mycobacterium tuberculosis, UniProt P9WQA3); assay: Fluorescence-based biochemical high throughput dose response assay for inhibitors of the fructose-bisphosphate aldolase (FBA) of M. tuberculosis.; type: functional
T5 sequence (P9WQA3 whole entry): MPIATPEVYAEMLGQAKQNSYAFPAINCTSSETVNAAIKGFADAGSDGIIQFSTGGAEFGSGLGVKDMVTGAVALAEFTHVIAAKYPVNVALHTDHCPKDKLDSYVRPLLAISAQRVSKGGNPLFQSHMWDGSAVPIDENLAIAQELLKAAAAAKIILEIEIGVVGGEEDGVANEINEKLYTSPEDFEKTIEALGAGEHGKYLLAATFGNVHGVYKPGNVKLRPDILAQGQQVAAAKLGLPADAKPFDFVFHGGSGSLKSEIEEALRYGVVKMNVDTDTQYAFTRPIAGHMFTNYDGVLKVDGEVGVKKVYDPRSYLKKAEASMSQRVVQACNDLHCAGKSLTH

[17] = A cytotoxicity screen of small molecule inhibitors of the PhoP region in Salmonella typhi identified in the primary screen. [Related pubchem assays: 1850, 1864, 1985 ]; type: functional

Sequence of Eukaryotic translation initiation factor 4E (P63073 whole entry): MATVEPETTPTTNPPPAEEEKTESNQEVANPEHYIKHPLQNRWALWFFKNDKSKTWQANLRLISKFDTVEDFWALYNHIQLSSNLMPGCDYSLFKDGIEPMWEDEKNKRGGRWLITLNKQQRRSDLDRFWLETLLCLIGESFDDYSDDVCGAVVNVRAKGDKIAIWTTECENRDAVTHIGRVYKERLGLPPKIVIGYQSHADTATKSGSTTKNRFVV
Sequence of Paired box protein Pax-8 (Q06710 whole entry): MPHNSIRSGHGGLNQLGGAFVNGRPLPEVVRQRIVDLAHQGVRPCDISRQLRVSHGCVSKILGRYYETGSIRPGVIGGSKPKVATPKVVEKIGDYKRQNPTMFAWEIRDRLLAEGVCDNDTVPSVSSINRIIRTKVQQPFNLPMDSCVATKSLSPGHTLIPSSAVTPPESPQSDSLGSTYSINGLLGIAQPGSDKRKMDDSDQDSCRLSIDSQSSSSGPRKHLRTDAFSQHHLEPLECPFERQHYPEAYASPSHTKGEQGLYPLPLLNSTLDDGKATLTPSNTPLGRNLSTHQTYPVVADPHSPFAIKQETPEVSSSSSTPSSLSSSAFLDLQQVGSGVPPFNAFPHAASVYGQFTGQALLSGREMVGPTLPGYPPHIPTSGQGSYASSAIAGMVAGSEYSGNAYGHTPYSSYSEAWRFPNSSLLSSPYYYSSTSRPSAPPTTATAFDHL
Sequence of Albumin (P02769 whole entry): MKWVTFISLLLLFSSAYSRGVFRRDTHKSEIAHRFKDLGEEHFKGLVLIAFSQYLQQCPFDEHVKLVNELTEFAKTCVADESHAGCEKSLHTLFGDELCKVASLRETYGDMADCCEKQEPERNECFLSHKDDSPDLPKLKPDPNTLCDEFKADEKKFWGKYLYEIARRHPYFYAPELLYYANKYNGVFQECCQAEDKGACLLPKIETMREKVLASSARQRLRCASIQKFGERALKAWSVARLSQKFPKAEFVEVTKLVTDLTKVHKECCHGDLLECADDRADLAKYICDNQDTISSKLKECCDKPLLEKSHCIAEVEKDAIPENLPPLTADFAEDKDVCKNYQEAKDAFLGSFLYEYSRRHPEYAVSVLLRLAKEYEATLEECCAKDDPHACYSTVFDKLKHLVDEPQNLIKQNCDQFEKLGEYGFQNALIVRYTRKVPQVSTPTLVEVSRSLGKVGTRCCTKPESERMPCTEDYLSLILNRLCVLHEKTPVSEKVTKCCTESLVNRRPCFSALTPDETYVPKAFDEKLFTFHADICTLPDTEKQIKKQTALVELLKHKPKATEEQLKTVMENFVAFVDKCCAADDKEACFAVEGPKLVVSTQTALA

Question: With `Cc1cc(C)c2c(N)c(C(=O)NN)sc2n1` as the molecule, how does the IC50 [1] read?
Answer: Its IC50 is > 94.1 µM (inactive).

Question: With `O=C(CSc1nc2cc3ccccc3cc2[nH]1)Nc1ccc(F)cc1` as the molecule, how does the IC50 [2] read?
Answer: Its IC50 is 51.7 µM (inactive).

Question: What about the IC50 [3] of the same molecule?
Answer: The IC50 was 119 µM (inactive).

Question: And the IC50 [4]?
Answer: Its IC50 is 100 µM (inactive).

Question: With `COc1cccc(NC(=O)Nc2ccc(C(C)(C)C)cc2)c1` as the molecule, how does the IC50 [5] read?
Answer: Its IC50 is 50 µM (inactive).

Question: What about the AC50 [6] of the same molecule?
Answer: Its AC50 is > 100 µM (inactive).

Question: What does the source list for `COc1nn(-c2ccccc2)c(=O)c(Cl)c1Cl`?
Answer: EC50 [7]: > 120 µM (not active); EC50 [8]: 9.89 µM (active); EC50 [9]: > 120 µM (not active); IC50 [10]: 4.58 µM (active); EC50 [11]: > 120 µM (not active); AC50 [12]: 6.72 µM (active); CC50 [13]: 8.79 µM (active)

Question: What does the source list for `O=C(COc1ccc(C(=O)c2ccccc2)cc1)Nc1cccnc1`?
Answer: IC50 [14]: 0.399 µM (active); EC50 [15]: > 29.9 µM (inactive)

Question: What does the source list for `Cc1cc(-c2nc3ccccc3o2)c2ccccc2n1`?
Answer: IC50 [16]: 2.96 µM (active); EC50 [17]: > 50 µM (active)

Question: With `CC(=O)c1cccc(NC(S)=NC2CCCCCCC2)c1` as the molecule, how does the AC50 [6] read?
Answer: Its AC50 is > 100 µM (inactive).
